Assay [1] concerns the target T1, HiBit-KRAS^G12C (Homo sapiens, UniProt P01116, G12C). The assay can be described thus: HiBit degradation assay in MiaPaCa-2 HiBit-KRas^G12C cells. The settings on record: 24 hours. Type of assay: cell-based. The essentials:
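MiaPaCa-2 cells with CRISPR N-terminal HiBit knock-in on one endogenous KRAS^G12C allele, treated 24 hours at 37° C with compound titrated 10 μM to 20 nM (0.1% or 0.5% DMSO). Lytic HiBit luminescence normalized to DMSO, 4-parameter fit giving DC50 and Dmax; points cytotoxic to […] cells by alamar blue excluded.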

For assay [2], the target named is T1, HiBit-KRAS^G12C. The assay can be described thus: HiBit degradation assay in SW1573 HiBit-KRas^G12C cells. The format is cell-based. More on the design: expressed in transfected cells; host or cells: SW1573 (clone E6), modified pcDNA3.1 vector, TK promoter. The settings on record: 24 hours. The essentials: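 SW1573 cells stably expressing N-terminally HiBit-tagged KRAS G12C, under the TK promoter, were treated 24 h at 37 °C with 10 μM to 20 nM compound in 0.1% or 0.5% DMSO. Residual HiBit luminescence normalised to DMSO and fitted with a 4-parameter model for DC50 and Dmax. Points with ≥50% viability loss (alamar blue) excluded.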

The mark [3] stands for this setting: SW1573 HiBit-KRas^G12C, 0.1% DMSO, read-out: KRas^G12C-HIBit (SW1573; 0.1% DMSO) DC50*.
Setting [4] is: MIA PaCa-2, read-out: KRas^G12C-HiBiT (MiaPaCa; 0.1% DMSO) DMax, MiaPaCa-2 HiBit-KRas^G12C cells, 0.1% DMSO, maximum degradation.
Where [5] appears, read: MIA PaCa-2, MiaPaCa-2 HiBit-KRas^G12C cells, 0.5% DMSO, maximum degradation, read-out: KRas^G12C-HiBiT (MiaPaCa; 0.5% DMSO) DMax.
Where [6] appears, read: read-out: KRas^G12C-HiBiT (MiaPaCa; 0.5% DMSO) IC50, MiaPaCa-2 HiBit-KRas^G12C cells, 0.5% DMSO.
Setting [7] is: SW1573, SW1573 HiBit-KRas^G12C, 0.5% DMSO, read-out: KRas^G12C-HiBiT (SW1573; 0.5% DMSO) Dmax**.
Where [8] appears, read: read-out: KRas^G12C-HiBiT (SW1573; 0.5% DMSO) IC50***, SW1573 HiBit-KRas^G12C, 0.5% DMSO.
Where [9] appears, read: MIA PaCa-2, MiaPaCa-2 HiBit-KRas^G12C cells, 0.1% DMSO, maximum degradation, read-out: KRas^G12C-HiBiT (MiaPaCa; 0.1% DMSO) DMax.
The mark [10] stands for this setting: SW1573, SW1573 HiBit-KRas^G12C, 0.1% DMSO, read-out: KRas^G12C-HiBit (SW1573; 0.1% DMSO) Dmax**.

T1 sequence (P01116 1-186 isoform P01116-2 G12C limits assumed): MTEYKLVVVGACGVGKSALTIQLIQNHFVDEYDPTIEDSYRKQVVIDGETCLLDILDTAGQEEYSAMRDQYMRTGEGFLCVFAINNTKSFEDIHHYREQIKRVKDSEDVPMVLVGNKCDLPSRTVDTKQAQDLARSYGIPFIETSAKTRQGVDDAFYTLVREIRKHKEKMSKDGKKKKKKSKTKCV

On to `C=CC(=O)N1CCN(c2nc(OCCN3CCC(OCCOc4cc([C@H](C(=O)N5C[C@H](O)C[C@H]5C(=O)N[C@@H](C)c5ccc(-c6scnc6C)cc5)C(C)C)on4)CC3)nc3c(F)c(-c4cc(O)cc5ccccc45)c(Cl)cc23)C[C@@H]1CC#N` (atropisomer, axis not shown) [Compound 4, (2S,4R)-1-((R)-2-(3-(2-((1-(2-(((R)-4-((S)-4-acryloyl-3-(cyanomethyl)piperazin-1-yl)-6-chloro-8-fluoro-7-(3-hydroxynaphthalen-1-yl)quinazolin-2-yl)oxy)ethyl)piperidin-4-yl)oxy)ethoxy)isoxazol-5-yl)-3-methylbutanoyl)-4-hydroxy-N-((S)-1-(4-(4-methylthiazol-5-yl)phenyl)ethyl)pyrrolidine-2-carboxamide], for which the “KRas^G12C-HiBiT (MiaPaCa; 0.1% DMSO) DMax” value in assay [1] (MiaPaCa-2 HiBit-KRas^G12C cells, 0.1% DMSO, maximum degradation) is listed as “C (C ≤ 35)”. Moreover, the “KRas^G12C-HiBiT (MiaPaCa; 0.5% DMSO) DMax” value in assay [1] (MiaPaCa-2 HiBit-KRas^G12C cells, 0.5% DMSO, maximum degradation) is listed as “B (35 < B < 70)”. Further, the “KRas^G12C-HiBit (SW1573; 0.1% DMSO) Dmax**” value in assay [2] (SW1573 HiBit-KRas^G12C, 0.1% DMSO) was “B (35 < B < 70)”. Moreover, the DC50 in assay [2] (setting [3]) is 100 to 1000 nM.

As to `C=CC(=O)N1CCN(c2nc(O[C@H]3CCC[C@@H]3N3CCC(COCC(=O)N[C@H](C(=O)N4C[C@H](O)C[C@H]4C(=O)N[C@@H](C)c4ccc(-c5scnc5C)cc4)C(C)(C)C)CC3)nc3c(F)c(-c4cc(O)cc5ccccc45)c(Cl)cc23)CC1` [Compound 12, (2S,4R)-1-[(2S)-2-[2-({1-[(1S,2S)-2-{[6-chloro-8-fluoro-7-(3-hydroxynaphthalen-1-yl)-4-[4-(prop-2-enoyl)piperazin-1-yl]quinazolin-2-yl]oxy}cyclopentyl]piperidin-4-yl}methoxy)acetamido]-3,3-dimethylbutanoyl]-4-hydroxy-N-[(1S)-1-[4-(4-methyl-1,3-thiazol-5-yl)phenyl]ethyl]pyrrolidine-2-carboxamide], the Dmax in assay [1] (setting [4]) is less than 35%; in assay [1] (MIA PaCa-2, read-out: KRas^G12C-HiBiT (MiaPaCa; 0.5% DMSO) DMax, MiaPaCa-2 HiBit-KRas^G12C cells, 0.5% DMSO, maximum degradation) it was less than 35%; in assay [2] (SW1573, read-out: KRas^G12C-HiBiT (SW1573; 0.5% DMSO) Dmax**, SW1573 HiBit-KRas^G12C, 0.5% DMSO), 35 to 70%; in assay [2] (SW1573, read-out: KRas^G12C-HiBit (SW1573; 0.1% DMSO) Dmax**, SW1573 HiBit-KRas^G12C, 0.1% DMSO), 35 to 70%. In addition, the DC50 in assay [2] (setting [3]) is 100 to 1000 nM.

Regarding `C=CC(=O)N1CCN(c2nc(OC[C@@H]3CCN(CCCOCC(=O)N[C@H](C(=O)N4C[C@H](O)C[C@H]4C(=O)N[C@@H](C)c4ccc(-c5scnc5C)cc4)C(C)(C)C)C3)nc3c(F)c(-c4cc(O)cc5ccccc45)c(Cl)cc23)C[C@@H]1CC#N` [Compound 95, (2S,4R)-1-[(2S)-2-(2-{3-[(3R)-3-[({6-chloro-4-[(3S)-3-(cyanomethyl)-4-(prop-2-enoyl)piperazin-1-yl]-8-fluoro-7-(3-hydroxynaphthalen-1-yl)quinazolin-2-yl}oxy)methyl]pyrrolidin-1-yl]propoxy}acetamido)-3,3-dimethylbutanoyl]-4-hydroxy-N-[(1S)-1-[4-(4-methyl-1,3-thiazol-5-yl)phenyl]ethyl]pyrrolidine-2-carboxamide], the Dmax in assay [1] (setting [5]) and in assay [2] (setting [7]) was greater than 70% throughout. The DC50 in assay [1] (setting [6]) was greater than 1000 nM; in assay [2] (setting [8]), 100 to 1000 nM.

On to `C=CC(=O)N1CCN(c2nc(OCCN3CCC(OCCOc4cc([C@@H](C(=O)N5C[C@@H](O)C[C@H]5C(=O)N[C@@H](C)c5ccc(-c6scnc6C)cc5)C(C)C)on4)CC3)nc3c(F)c(-c4cc(O)cc5ccccc45)c(Cl)cc23)C[C@@H]1CC#N` [Compound 5, (2S,4S)-1-[(2S)-2-{3-[2-({1-[2-({6-chloro-4-[(3S)-3-(cyanomethyl)-4-(prop-2-enoyl)piperazin-1-yl]-8-fluoro-7-(3-hydroxynaphthalen-1-yl)quinazolin-2-yl}oxy)ethyl]piperidin-4-yl}oxy)ethoxy]-1,2-oxazol-5-yl}-3-methylbutanoyl]-4-hydroxy-N-[(1S)-1-[4-(4-methyl-1,3-thiazol-5-yl)phenyl]ethyl]pyrrolidine-2-carboxamide], for which the Dmax in assay [1] (setting [4]) is less than 35%. Besides, the DC50 in assay [1] (read-out: KRas^G12C-HiBiT (MiaPaCa; 0.1% DMSO) IC50, MiaPaCa-2 HiBit-KRas^G12C cells, 0.1% DMSO) was 100 to 1000 nM; in assay [2] (setting [3]), greater than 1000 nM.

As for `C=CC(=O)N1CCN(c2nc(OCCN3CCC(COc4cc([C@H](C(=O)N5C[C@@H](O)C[C@H]5C(=O)N[C@@H](C)c5ccc(-c6scnc6C)cc5)C(C)C)on4)CC3)nc3c(F)c(-c4cc(O)cc5ccccc45)c(Cl)cc23)C[C@@H]1CC#N` (atropisomer, axis not shown) [Compound 106, (2S,4S)-1-[(2R)-2-[3-({1-[2-({6-chloro-4-[(3S)-3-(cyanomethyl)-4-(prop-2-enoyl)piperazin-1-yl]-8-fluoro-7-(3-hydroxynaphthalen-1-yl)quinazolin-2-yl}oxy)ethyl]piperidin-4-yl}methoxy)-1,2-oxazol-5-yl]-3-methylbutanoyl]-4-hydroxy-N-[(1S)-1-[4-(4-methyl-1,3-thiazol-5-yl)phenyl]ethyl]pyrrolidine-2-carboxamide], the Dmax in assay [1] (setting [5]) was less than 35%. Also, the results for the DC50 in assay [1] (setting [6]) and in assay [2] (setting [8]) were less than 100 nM and greater than 1000 nM, respectively.

`C=CC(=O)N1CCN(c2nc(O[C@H](C)CN3CCC(OCCOc4cc(-c5scnc5C)ccc4CNC(=O)[C@@H]4C[C@@H](O)CN4C(=O)[C@H](c4cc(C)no4)C(C)C)CC3)nc3c(F)c(-c4cc(O)cc5ccccc45)c(Cl)cc23)CC1` [Compound 77, (2S,4R)-N-({2-[2-({1-[(2R)-2-{[6-chloro-8-fluoro-7-(3-hydroxynaphthalen-1-yl)-4-[4-(prop-2-enoyl)piperazin-1-yl]quinazolin-2-yl]oxy}propyl]piperidin-4-yl}oxy)ethoxy]-4-(4-methyl-1,3-thiazol-5-yl)phenyl}methyl)-4-hydroxy-1-[(2S)-3-methyl-2-(3-methyl-1,2-oxazol-5-yl)butanoyl]pyrrolidine-2-carboxamide]: the Dmax in assay [1] (setting [9]) and in assay [2] (setting [10]) was less than 35% each time. Moreover, the DC50 in assay [2] (setting [3]) was in the range of 100 to 1000 nM.

On to `C=CC(=O)N1CCN(c2nc(OCCN3CCC(COCC(=O)N[C@H](C(=O)N4C[C@H](O)C[C@H]4C(=O)N[C@@H](C)c4ccc(-c5scnc5C)cc4)C(C)(C)C)CC3)nc3c(F)c(-c4cc(O)cc(C)c4C)c(Cl)cc23)C[C@@H]1CC#N` [Compound 102, (2S,4R)-1-[(2S)-2-[2-({1-[2-({6-chloro-4-[(3S)-3-(cyanomethyl)-4-(prop-2-enoyl)piperazin-1-yl]-8-fluoro-7-(5-hydroxy-2,3-dimethylphenyl)quinazolin-2-yl}oxy)ethyl]piperidin-4-yl}methoxy)acetamido]-3,3-dimethylbutanoyl]-4-hydroxy-N-[(1S)-1-[4-(4-methyl-1,3-thiazol-5-yl)phenyl]ethyl]pyrrolidine-2-carboxamide], for which the Dmax in assay [1] (setting [5]) and in assay [2] (setting [7]) was greater than 70% each time. Moreover, the DC50 in assay [1] (setting [6]) and in assay [2] (setting [8]) was 100 to 1000 nM in each case.

With `C=CC(=O)N1CCN(c2nc(O[C@H](C)CN3CCC(OCCOCC(=O)N[C@H](C(=O)N4C[C@H](O)C[C@H]4C(=O)N[C@@H](C)c4ccc(-c5scnc5C)cc4)C(C)(C)C)CC3)nc3c(F)c(-c4cc(O)cc5ccccc45)c(Cl)cc23)C[C@@H]1CC#N` [Compound 33, (2S,4R)-1-[(2S)-2-{2-[2-({1-[(2R)-2-({6-chloro-4-[(3S)-3-(cyanomethyl)-4-(prop-2-enoyl)piperazin-1-yl]-8-fluoro-7-(3-hydroxynaphthalen-1-yl)quinazolin-2-yl}oxy)propyl]piperidin-4-yl}oxy)ethoxy]acetamido}-3,3-dimethylbutanoyl]-4-hydroxy-N-[(1S)-1-[4-(4-methyl-1,3-thiazol-5-yl)phenyl]ethyl]pyrrolidine-2-carboxamide], the Dmax in assay [1] (setting [9]), in assay [1] (setting [5]), in assay [2] (setting [10]) and in assay [2] (setting [7]) was 35 to 70% in each case. In addition, the DC50 in assay [2] (setting [3]) lay in the range of 100 to 1000 nM.

Source of the values: patent US20220370416A1, “COMPOUNDS AND METHODS FOR TARGETED DEGRADATION OF KRAS” (Arvinas Operations, Inc., priority 2020, published 2022).
